# According to publication PMC5515969, “Effects of 31 FDA approved small-molecule kinase inhibitors on isolated rat liver mitochondria” (Archives of Toxicology, 2016):
# Where two headings read alike, the source gives them in different places.
# Experiments:
# [1] = test system: isolated rat liver mitochondria; assay: Mitochondrial oxygen consumption (glutamate/malate or succinate driven, state 4 and state 3); format: biochemical; conditions: DMSO treated samples set as 1; as to State 3 respiration driven by succinate at 10XCmax: key: 0 indicates that the drug had no effects (negative); as to State 3 respiration driven by succinate at 1XCmax: key: 0 indicates that the drug had no effects (negative)
# Method in brief: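 Rat liver mitochondria (1 mg/ml protein) exposed 5 min to kinase inhibitors in 0.1% DMSO, then O2 consumption measured by Clark-type electrode with glutamate/malate or succinate (state 4), ADP added after 3 min (state 3). Rates normalized to 0.1% DMSO controls set to 1.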
# RCC I = RCC I activity in submitochondrial particles; format: biochemical, rat; design: key to RCC I at 10XCmax / RCC I at 100XCmax / RCC I at 50XCmax / RCC I at 30XCmax / RCC I at 20XCmax: activity relative to DMSO-treated controls (control set as 1 = 100%); conditions: 10XCmax; DMSO treated samples set as 1
# Method in brief: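 Abs 340 nm (I/V) or 600 nm (II), 1-min reads × 6 min; 550 nm (III, IV), 10-s reads × 2 min. RCC I = rotenone-free minus rotenone rate. DMSO control = 1.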
# RCC II = target: T1, RCC II (Rattus norvegicus, UniProt P21913+Q641Z9+Q6PCT8+Q920L2); assay: RCC II activity in submitochondrial particles; format: biochemical; design: key: activity relative to DMSO-treated controls (control set as 1 = 100%); conditions: DMSO treated samples set as 1
# T1 construct: Submitochondrial particles were prepared by subjecting the intact mitochondria to three successive freeze–thaw cycles; from tissue; host or cells: rat liver mitochondria, used as submitochondrial particles
# Method in brief: (§1)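 Kinase inhibitors were preincubated 15 min with submitochondrial particles (1 mg/ml) before complex activities were measured. RCC I was the rotenone-sensitive portion (activity without minus with rotenone). RCC I/V was read at 340 nm and RCC II at 600 nm every 1 min for 6 min. RCC III and IV were read at 550 nm every 10 s for 2 min. Activities are normalized to DMSO controls set as 1.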
# RCC IV = RCC IV activity in submitochondrial particles; format: biochemical, rat; design: key to RCC IV at 50XCmax / RCC IV at 100XCmax: activity relative to DMSO-treated controls (control set as 1 = 100%); conditions: 50XCmax; DMSO treated samples set as 1; in %
# Method in brief: as §1
# RCC V = RCC V activity in submitochondrial particles; format: biochemical, rat; conditions: DMSO treated samples set as 1; as to RCC V at 5XCmax: key: 0 indicates that the drug had no effects (negative)
# Method in brief: as §1
# [2] = test system: isolated rat liver mitochondria; assay: Mitochondrial inner membrane potential (MMP), Rhodamine 123; format: biochemical; conditions: difference in signal between KI and DMSO treated samples at the end of experiments
# Excerpt: Fig. 3 KI effects on mitochondrial inner membrane potential (MMP). […] In a, c, data are means and standard derivations from three separate experiments. *p < 0.05 as compared to DMSO-treated samples at the end of experiments. In b, data are means of two independent experiments
# [3] = test system: isolated rat liver mitochondria; assay: Mitochondrial swelling (absorbance at 535 nm); format: biochemical; conditions: difference in signal between KI and DMSO treated samples at the end of experiments; as to Swelling 5XCmax: key: 0 indicates that the drug had no effects (negative)
# [4] = test system: isolated rat liver mitochondria; conditions: positive control alamethicin treated samples
# [5] = read-out: Cmax at µM; human therapeutic maximal blood concentration; ref product labeling; cited from earlier work
# [6] = cited from earlier work
# T1 sequence (Q920L2 35-656): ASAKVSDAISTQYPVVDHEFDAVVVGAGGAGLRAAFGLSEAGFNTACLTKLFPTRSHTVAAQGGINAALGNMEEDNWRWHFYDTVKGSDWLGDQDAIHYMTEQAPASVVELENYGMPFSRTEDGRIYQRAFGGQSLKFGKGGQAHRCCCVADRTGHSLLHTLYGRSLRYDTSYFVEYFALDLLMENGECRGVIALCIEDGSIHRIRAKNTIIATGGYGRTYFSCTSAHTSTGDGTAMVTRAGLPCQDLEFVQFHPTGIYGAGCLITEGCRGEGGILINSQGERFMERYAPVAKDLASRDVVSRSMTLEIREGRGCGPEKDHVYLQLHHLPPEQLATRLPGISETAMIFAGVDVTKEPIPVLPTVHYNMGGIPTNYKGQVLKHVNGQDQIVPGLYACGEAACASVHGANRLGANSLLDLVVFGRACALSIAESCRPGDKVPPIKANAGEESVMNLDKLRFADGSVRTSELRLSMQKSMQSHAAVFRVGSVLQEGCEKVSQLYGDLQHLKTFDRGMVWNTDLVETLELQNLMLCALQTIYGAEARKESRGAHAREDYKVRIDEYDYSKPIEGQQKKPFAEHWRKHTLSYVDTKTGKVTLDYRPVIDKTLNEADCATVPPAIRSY
# T1 sequence (P21913 31-282): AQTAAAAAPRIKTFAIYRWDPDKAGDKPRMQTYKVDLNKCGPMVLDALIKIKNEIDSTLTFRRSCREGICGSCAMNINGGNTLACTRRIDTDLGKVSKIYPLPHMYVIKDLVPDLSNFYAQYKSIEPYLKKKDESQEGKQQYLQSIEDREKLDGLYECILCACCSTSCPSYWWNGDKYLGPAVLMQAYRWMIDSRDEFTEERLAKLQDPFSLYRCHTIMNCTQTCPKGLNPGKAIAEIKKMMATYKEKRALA
# T1 sequence (Q641Z9 1-169): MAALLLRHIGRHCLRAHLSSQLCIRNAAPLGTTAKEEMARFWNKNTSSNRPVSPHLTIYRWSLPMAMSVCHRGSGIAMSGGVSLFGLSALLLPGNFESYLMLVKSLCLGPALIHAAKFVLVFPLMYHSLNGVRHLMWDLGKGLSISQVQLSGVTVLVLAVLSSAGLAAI
# T1 sequence (Q6PCT8 57-159): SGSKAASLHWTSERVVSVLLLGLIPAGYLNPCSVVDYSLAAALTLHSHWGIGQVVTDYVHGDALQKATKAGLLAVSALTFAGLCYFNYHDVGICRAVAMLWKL
structure (smiles),measurement,setting,value
CC(=O)Nc1cccc(-n2c(=O)n(C3CC3)c(=O)c3c(Nc4ccc(I)cc4F)n(C)c(=O)c(C)c32)c1 [Trametinib],State 3 respiration driven by glutamate/malate at 1XCmax,[1]; 1XCmax,0
same,State 3 respiration driven by succinate at 1XCmax,[1]; 1XCmax,0
same,State 4 respiration driven by glutamate/malate at 1XCmax,[1]; 1XCmax,0
same,State 4 respiration driven by succinate at 1XCmax,[1]; 1XCmax,0
same,State 3 respiration driven by glutamate/malate at 2.5XCmax,[1]; 2.5XCmax,0
same,State 3 respiration driven by succinate at 2.5XCmax,[1]; 2.5XCmax,0
same,State 4 respiration driven by glutamate/malate at 2.5XCmax,[1]; 2.5XCmax,0
same,State 4 respiration driven by succinate at 2.5XCmax,[1]; 2.5XCmax,0
same,State 3 respiration driven by glutamate/malate at 5XCmax,[1]; 5XCmax,0
same,State 3 respiration driven by succinate at 5XCmax,[1]; 5XCmax,0
same,State 4 respiration driven by glutamate/malate at 5XCmax,[1]; 5XCmax,0
same,State 4 respiration driven by succinate at 5XCmax,[1]; 5XCmax,0
same,State 3 respiration driven by glutamate/malate at 10XCmax,[1]; 10XCmax,0
same,State 3 respiration driven by succinate at 10XCmax,[1]; 10XCmax,0
same,State 4 respiration driven by glutamate/malate at 10XCmax,[1]; 10XCmax,0
same,State 4 respiration driven by succinate at 10XCmax,[1]; 10XCmax,0
same,State 3 respiration driven by glutamate/malate at 20XCmax,[1]; 20XCmax,0
same,State 3 respiration driven by succinate at 20XCmax,[1]; 20XCmax,0
same,State 4 respiration driven by glutamate/malate at 20XCmax,[1]; 20XCmax,0
same,State 4 respiration driven by succinate at 20XCmax,[1]; 20XCmax,0
same,State 3 respiration driven by glutamate/malate at 30XCmax,[1]; 30XCmax,0
same,State 3 respiration driven by succinate at 30XCmax,[1]; 30XCmax,0
same,State 4 respiration driven by glutamate/malate at 30XCmax,[1]; 30XCmax,0
same,State 4 respiration driven by succinate at 30XCmax,[1]; 30XCmax,0
same,State 3 respiration driven by glutamate/malate at 50XCmax,[1]; 50XCmax,0
same,State 3 respiration driven by succinate at 50XCmax,[1]; 50XCmax,0
same,State 4 respiration driven by glutamate/malate at 50XCmax,[1]; 50XCmax,0
same,State 4 respiration driven by succinate at 50XCmax,[1]; 50XCmax,0
same,State 3 respiration driven by glutamate/malate at 100XCmax,[1]; 100XCmax,0
same,State 3 respiration driven by succinate at 100XCmax,[1]; 100XCmax,0
same,State 4 respiration driven by glutamate/malate at 100XCmax,[1]; 100XCmax,0
same,State 4 respiration driven by succinate at 100XCmax,[1]; 100XCmax,0
same,RCC I at 10XCmax,RCC I,0
same,RCC II at 1.0XCmax,RCC II; 1.0XCmax,0
same,RCC II at 2.5XCmax,RCC II; 2.5XCmax,0
same,RCC II at 5XCmax,RCC II; 5XCmax,0
same,RCC II at 10XCmax,RCC II; 10XCmax,0
same,RCC II at 20XCmax,RCC II; 20XCmax,0
same,RCC II at 30XCmax,RCC II; 30XCmax,0
same,RCC II at 50XCmax,RCC II; 50XCmax,0
same,RCC II at 100XCmax,RCC II; 100XCmax,0
same,RCC IV at 50XCmax,RCC IV,0
same,RCC V at 5XCmax,RCC V; 5XCmax,0
same,RCC V at 50XCmax,RCC V; 50XCmax,0
same,MMP measured by Rhodamine 123 at 1XCmax,[2]; 1XCmax,0
same,MMP measured by Rhodamine 123 at 2.5XCmax,[2]; 2.5XCmax,0
same,MMP measured by Rhodamine 123 at 5XCmax,[2]; 5XCmax,0
same,MMP measured by Rhodamine 123 at 10XCmax,[2]; 10XCmax,0
same,MMP measured by Rhodamine 123 at 20XCmax,[2]; 20XCmax,0
same,MMP measured by Rhodamine 123 at 30XCmax,[2]; 30XCmax,0
same,MMP measured by Rhodamine 123 at 50XCmax,[2]; 50XCmax,0
same,MMP measured by Rhodamine 123 at 100XCmax,[2]; 100XCmax,0
same,Swelling 1XCmax,[3]; 1XCmax,0
same,Swelling 2.5XCmax,[3]; 2.5XCmax,0
same,Swelling 5XCmax,[3]; 5XCmax,0
same,Swelling 10XCmax,[3]; 10XCmax,0
same,Swelling 20XCmax,[3]; 20XCmax,0
same,Swelling 30XCmax,[3]; 30XCmax,0
same,Swelling 50XCmax,[3]; 50XCmax,0
same,Swelling 100XCmax,[3]; 100XCmax,0
same,Cytochrome c release 1XCmax,[4]; 1XCmax,0
same,Cytochrome c release 2.5XCmax,[4]; 2.5XCmax,0
same,Cytochrome c release 5XCmax,[4]; 5XCmax,0
same,Cytochrome c release 10XCmax,[4]; 10XCmax,0
same,Cytochrome c release 20XCmax,[4]; 20XCmax,0
same,Cytochrome c release 30XCmax,[4]; 30XCmax,0
same,Cytochrome c release 50XCmax,[4]; 50XCmax,0
same,Cytochrome c release 100XCmax,[4]; 100XCmax,0
same,Cmax,[5],0.04 µM
same,DILI potential (based on labeling),"[6]; 1 DILI positive, 0 negative according to labeling, ref product labeling",0
same,DILI potential (based on labeling),[6]; ref FDA product labeling,0
